We go through 10 compounds from patent US8465808B2, “Process for depositing an organic acid on the surface of a metal composition” (Duquesne University of the Holy Spirit, priority 2005, dated 2013).

A short description of data set [1]: Static contact angle goniometry with water on modified SS316L. It is filed as physicochemical. Particulars: SAM of the acid on SS316L; for Contact angle values: static, average of at least 3 samples, 6 readings each. The procedure:
Static contact angles were measured using VCA Optima Goniometry to determine the wettability of the surface. Measurements were made using the procedure described by Bain et al. (J. Am. Chem. Soc. 1989; Vol. 111, pgs. 321-335), known by those skilled in the art. About 1 μl drop of deionized water (purified with a Millipore Milli Q plus system) was formed at the end of the micro-liter syringe and brought into contact with the surface. Average contact angle value±standard deviation of 6 readings each on at least 3 samples have been reported.

Data set [2] deals with 3T3 Swiss Albino embryo fibroblast cells. Description: Live/dead viability of cells on modified SS316L substrates. The data set is classed as cell-based. The settings on record: 3T3 fibroblasts, 10,000 cells/well, 24 hours on SAM-modified SS316L. On the procedure:
For cell experiments, 3T3 Swiss Albino embryo fibroblast cells of mouse were obtained from ATCC (CCL-92). The cells were grown in Dulbecco's modified Eagle medium (DMEM, Invitrogen Corp.) supplemented with 10% calf serum, 1% penicillin/[…] antibiotic. The cells were passaged every 3 days and were discarded after 15 passages. Cells were removed from the T 75 flasks by trypsinization, washed once with DMEM, suspended in culture medium. The modified SS316L substrates were placed in a 24 well plate and were sterilized with 70% ethanol for 10 mins and then rinsed with sterile distilled water 3 times. The sterilized substrates were left in the hood to dry. The suspended 3T3 Swiss Albino embryo fibroblast cells were then counted with a Haemocytometer after staining them with trypan blue and seeded at the density of 10,000 cells/well into each of the wells containing the substrates modified with respective acids After incubating the cells in humidified air with 5% CO2 for 24 hours at 37° C., the samples were rinsed with PBS three times and analyzed for live dead cells. […] This calcein is retained in the live cells and produces a green fluorescence. Ethidium homodimer is excluded by the intact plasma membrane of live cells but enters cells with damaged membranes (dead cells), binds to nucleic acid and produces a bright red fluorescence. […]

Data set [3] has the same test system. The data set is described as follows: Cell adhesion (number of cells attached) on modified SS316L substrates. It is filed as cell-based, mouse. Particulars: 3T3 cells, 24 hours, fluorescence microscopy. The procedure:
For cell experiments, 3T3 Swiss Albino embryo fibroblast cells of mouse were obtained from ATCC (CCL-92). The cells were grown in Dulbecco's modified Eagle medium (DMEM, Invitrogen Corp.) supplemented with 10% calf serum, 1% penicillin/[…] antibiotic. The cells were passaged every 3 days and were discarded after 15 passages. Cells were removed from the T 75 flasks by trypsinization, washed once with DMEM, suspended in culture medium. The modified SS316L substrates were placed in a 24 well plate and were sterilized with 70% ethanol for 10 mins and then rinsed with sterile distilled water 3 times. The sterilized substrates were left in the hood to dry. The suspended 3T3 Swiss Albino embryo fibroblast cells were then counted with a Haemocytometer after staining them with trypan blue and seeded at the density of 10,000 cells/well into each of the wells containing the substrates modified with respective acids After incubating the cells in humidified air with 5% CO2 for 24 hours at 37° C., the samples were rinsed with PBS three times and analyzed for live dead cells. Viability/cytotoxicity kit (L-3224) obtained from Molecular Probes was used to provide a simultaneous determination of live and dead cells. The assay contains Calcein AM and ethidium homodimer dyes. The live cells are identified by the enzymatic conversion of the non-fluorescent cell permeant calcein AM to intensely fluorescent calcein. This calcein is retained in the live cells and produces a green fluorescence. Ethidium homodimer is excluded by the intact plasma membrane of live cells but enters cells with damaged membranes (dead cells), binds to nucleic acid and produces a bright red fluorescence. Live cells are in green and dead cells in red when viewed under fluorescent microscope.
After washing with PBS, 0.5 ml of the live/dead stain was added to each well and the well plate was covered with aluminum foil and placed in the incubator for about 30 minutes. Three samples of each type of modification were used for every set and four such sets were performed. Each sample was mounted on the microscope slide and viewed under fluorescence Nikon Eclipse microscope at 10× magnification. Five different spots were observed and counted for cells on each sample and average value used for calculation of significance. Viability calculations were performed on each sample by counting the number of live cells in the total number of cells.
ANOVA was used to determine the statistical difference between the means of data sets for cell experiments with the modified substrates and multiple comparisons of the sample means was performed using Bonferroni post test using confidence level of 0.05.
In order to determine the stability of the interfacial systems developed in this work under physiological conditions and their viability for use in biomedical devices (and more specifically medically implantable devices), cell adhesion studies using fibroblasts were conducted on four sets of independent experiments with three samples each of all functionalized SAM with carboxylate and phosphonate head groups. The substrates were modified with —CH3, —COOH, —OH terminated phosphonic acids and —CH3, —OH, —COOH and —NH2 terminated carboxylic acids by the solution deposition process of the present invention as set forth herein. […] The samples were then rinsed with PBS three times and analyzed for live dead cells using the Viability/cytotoxicity kit. […]

For data set [4] the following is noted: cited from earlier work.

For “12-aminododecanecarboxylic acid [C12NH2—C]”, the “Contact angle compared with control SS316L substrate” value in data set [1] is reported as “lower contact angle values than the control”.
With `O=P(O)(O)CCCCCCCCCCCO` [C11OH—P, 11-hydroxyundecanephosphonic acid], the “Viability (live cells / total number of cells)” value in data set [2] is “about 92%”. Besides, the Contact angle values in data set [1] was found to be 59.8°.
Regarding `O=C(O)CCCCCCCCCCCCP(=O)(O)O` [C12COOH—P, 12-carboxydodecanephosphonic acid], in data set [1], the Contact angle values amounted to 52.3°.
Take `NCCCCCCCCCCCCC(=O)O` [C12NH2—C, 12-aminododecanecarboxylic acid]: the “Number of cells attached to the modified SS316L (in words)” value (“Number of cells attached” below) in data set [3] is “close to that in the control”. This compound also had a Contact angle values in data set [1] of 38.4°.
`O=C(O)CCCCCCCCCCCCC(=O)O` [C14COOH—C, 1,12-dodecanedicarboxylic acid]: in data set [1], the “Contact angle compared with control SS316L substrate” value is listed as “lower contact angle values than the control” and the Contact angle values is 42°.
The like results for `O=C(O)CCCCCCCCCCCCCCCO` [C16OH—C, 16-hydroxyhexadecanoic acid] were, in that order, “lower contact angle values than the control” and 48.6°.
As to `CCCCCCCCCCCCCCCCCC(=O)O` [Heptadecyl Carboxylic acid], the pKa entry in data set [4] is listed as “pKa = 10”.
Turning to `CCCCCCCCCCCCCCCCCCC(=O)O` [ODCA, octadecylcarboxylic acid], the “Shape of the cells on the surface” value in data set [3] was “rounded and small”. Besides, in data set [4], the pKa entry is “pKa = 10”. Moreover, the Contact angle values worked out at 104.1° in data set [1] and 104 ° in data set [1] (listed as Octadecylcarboxylic acid).
For the compound `CCCCCCCCCCCCCCCCCCP(=O)(O)O` [ODPA, octadecylphosphonic acid], in data set [3], the “Number of cells attached” value is “fewer cell attachments than ODCA”; the “Shape of the cells on the surface” value was “rounded and small”. Moreover, the “Number of cells attached” value in data set [3] (listed as methyl terminated phosphonic acid) is recorded as “the least in number”. Besides, the “Viability (live cells / total number of cells)” value in data set [2] is “about 92%”. For the same compound, the pKa entry in data set [4] is reported as “pka = 4”. Besides, in data set [1], the Contact angle values is 108°.
`CCCCCCCCCCCCCCCCCCS(=O)(=O)O` [Octadecyl sulfonic acid]: in data set [4], the pKa result is given as “pKa = 2”.
